Measured values published in patent publication US20250282799A1, “SUBSTITUTED PYRIDO[4,3-d]PYRIMIDINES AS KRAS MODULATORS” (Alterome Therapeutics, Inc., priority 2023, published 2025).

Tested on: KRAS G12V dependent lung adenocarcinoma cell line, NCI-H441
Assay: Cellular pERK (Thr202/Tyr204) FRET/HTRF assay
Type: cell-based
From the text: “Ras” refers to a protein in the Ras superfamily of small GTPases, such as in the Ras subfamily. […] The Ras proteins play a critical role in the regulation of cell behaviors, including proliferation, differentiation, and survival. […] KRAS G12V, G12D, and G12S variants are common in human cancers and Ras inhibitors binding in or near the Switch II pocket may provide mutant binding selectivity. RAS mutations are known to be often associated with pancreatic, colorectal and non-small-cell lung carcinomas (Lone, A. M. et al. J. Am. Chem. Soc. 2011,133, 11665-74, which is entirely incorporated herein by reference; Dillon, M. B.; Bachovchin, D. A.; Brown, S. J.; Finn, M. G.; Rosen, H.; Cravatt, B. F.; Mowen, K. A. ACS Chem. Biol. 2012, 7, 1198-204, which is entirely incorporated herein by reference; Bachovchin, D. A.; Brown, S. J.; Rosen, H.; Cravatt, B. F. Nat. Biotechnol. 2009, 27, 387-94, Ostrem, J. M.; Peters, U.; Sos, M. L.; Wells, J. A.; Shokat, K. M. Nature 2013, 503, 548-551. Ryan M. B. and Corcoran R. B, Nat. Rev Clin Onco. 2018, 11, 709-720.). Ras proteins are key members in the Ras/Raf/Mitogen-activated protein kinase (MAPK) signaling pathway. This pathway regulates a wide variety of cellular processes, including proliferation, differentiation, apoptosis, and stress responses. One way to measure the impact of an inhibitor of Ras proteins is to measure downstream phosphorylation of proteins in the MAPK pathway. The MAPK pathway includes extracellular signal-regulated kinases named ERK1 and ERK2, which are serine-threonine kinases that regulate cellular signaling under both normal and oncogenic conditions. ERK expression and hyperactivation via phosphorylation plays a major role in cancer progression and are downstream of Ras proteins. The assay used for measuring the downstream impact of Ras inhibition is the use of a highly sensitive cell-based readout of ERK phosphorylation (pERK) specifically on Threonine (Thr) 202 and Tyrosine (Tyr) 204 in a KRAS G12V dependent lung adenocarcinoma cell line, NCI-H441 (ATCC Cat #HTB-174). The assay described herein is suitable for assessing inhibition of Ras and can be tailored for any of the predominant oncogenic mutations in any isoform of Ras (e.g., KRAS, HRAS, and NRAS) by changing the cell line.
pERK was measured using an advanced pERK assay designed for the robust and highly sensitive quantification of ERK phosphorylation on Thr202/Tyr204. This assay is intended for the simple, rapid, and direct detection of endogenous levels of ERK1/2 in cells, but only when ERK is phosphorylated at Thr202 and Tyr204 (Perkin Elmer Catalog #64AERPEH). pERK was detected in a FRET based sandwich assay format using 2 different specific antibodies, one labelled with Eu3+-Cryptate (donor) and the second with d2 (acceptor). When the dyes are in close proximity, the excitation of the donor with a light source (laser or flash lamp) triggers a Fluorescence Resonance Energy Transfer (FRET) towards the acceptor, which in turn fluoresces at a specific wavelength (665 nm). The specific signal modulates positively in proportion to p-ERK1/2 (Thr202/Tyr204). The simple mix-and-read protocol eliminates all wash steps for faster analysis and high-quality output. Briefly, cells were diluted to the desired concentration per well based on a growth curve showing ˜75% confluence within a 24-hour time period at no less than 95% viability. Cell suspension (24 μL) were added into each well of 384-well culture plate and maintained in 37° C. 5% CO2 incubator overnight prior to assay. All compounds were transferred to stock plates using TECAN (EVO200) liquid handler using DMSO as the solubilizing and dilution agent. Test compounds were transferred onto adherent cells using an Echo655 liquid handler. DMSO was employed as negative control. Cells were incubated with test compounds for 1 hr in a 37° C., 5% CO2 incubator following compound addition. […]

[1] = cellular pERK (Thr202/Tyr204) HTRF, NCI-H441 cells
[2] = cellular pERK HTRF, NCI-H441 (KRAS G12V) cells

SMILES	IC50 [2] [nM]	further results
[2H]C([2H])(Oc1nc(N2CCOC[C@@H]3[C@@H](Cl)[C@@H]32)c2cc(C(F)(F)F)c(-c3ccc(F)c4sc(N)c(C#N)c34)c(F)c2n1)[C@@]12CCCN1C[C@H](F)C2 (atropisomer, axis not shown; (aS)) [Example 419, 2-amino-4-((S)-4-((1R,7R,8R)-8-chloro-5-oxa-2-azabicyclo[5.1.0]octan-2-yl)-8-fluoro-2-(((2R,7aS)-2-fluorotetrahydro-1H-pyrrolizin-7a(5H)-yl)methoxy-d2)-6-(trifluoromethyl)quinazolin-7-yl)-7-fluorobenzo[b]thiophene-3-carbonitrile]		IC50 [1]: 50 to 500 nM
[2H]C([2H])(Oc1nc(N2CCOC[C@H]3[C@H](Cl)[C@H]32)c2cc(C(F)(F)F)c(-c3ccc(F)c4sc(N)c(C#N)c34)c(F)c2n1)[C@@]12CCCN1C[C@H](F)C2 (atropisomer, axis not shown; (aS)) [Example 420, 2-amino-4-((S)-4-((1S,7S,8S)-8-chloro-5-oxa-2-azabicyclo[5.1.0]octan-2-yl)-8-fluoro-2-(((2R,7aS)-2-fluorotetrahydro-1H-pyrrolizin-7a(5H)-yl)methoxy-d2)-6-(trifluoromethyl)quinazolin-7-yl)-7-fluorobenzo[b]thiophene-3-carbonitrile]		IC50 [1]: < 50 nM
[2H]C([2H])(Oc1nc(N2CCOC[C@@H]3[C@@H](Cl)[C@@H]32)c2cc(C(F)(F)F)c(-c3ccc(F)c4sc(N)c(C#N)c34)c(F)c2n1)[C@@]12CCCN1C[C@H](F)C2 (atropisomer, axis not shown; (aS)) [Example 421, 2-amino-4-((R)-4-((1R,7R,8R)-8-chloro-5-oxa-2-azabicyclo[5.1.0]octan-2-yl)-8-fluoro-2-(((2R,7aS)-2-fluorotetrahydro-1H-pyrrolizin-7a(5H)-yl)methoxy-d2)-6-(trifluoromethyl)quinazolin-7-yl)-7-fluorobenzo[b]thiophene-3-carbonitrile]		IC50 [1]: 500 to 10000 nM
[2H]C([2H])(Oc1nc(N2CCOC[C@H]3[C@H](F)[C@H]32)c2cc(F)c(-c3cc(N)cc4ccc(F)c(C#C)c34)c(C)c2n1)[C@@]12CCCN1C[C@H](F)C2 (atropisomer, axis not shown; (aS)) [Example 434, 5-Ethynyl-6-fluoro-4-((R)-6-fluoro-4-((1S,7S,8S)-8-fluoro-5-oxa-2-azabicyclo[5.1.0]octan-2-yl)-2-(((2R,7aS)-2-fluorotetrahydro-1H-pyrrolizin-7a(5H)-yl)methoxy-d2)-8-methylquinazolin-7-yl)naphthalen-2-amine]	500 to 10000	
[2H]C([2H])(Oc1nc(N2CCOC[C@H]3[C@H](F)[C@H]32)c2cc(F)c(-c3cc(N)cc4ccc(F)c(C#C)c34)c(C)c2n1)[C@@]12CCCN1C[C@H](F)C2 (atropisomer, axis not shown; (aS)) [Example 435, 5-ethynyl-6-fluoro-4-((S)-6-fluoro-4-((1S,7S,8S)-8-fluoro-5-oxa-2-azabicyclo[5.1.0]octan-2-yl)-2-(((2R,7aS)-2-fluorotetrahydro-1H-pyrrolizin-7a(5H)-yl)methoxy-d2)-8-methylquinazolin-7-yl)naphthalen-2-amine]	< 50	
[2H]C([2H])(Oc1nc(N2CCOC[C@H]3[C@H](F)[C@H]32)c2cc(C#N)c(-c3ccc(F)c4sc(N)c(C#N)c34)c(C)c2n1)[C@@]12CCCN1C[C@H](F)C2 (atropisomer, axis not shown; (aS)) [Example 440, (R)-7-(2-amino-3-cyano-7-fluorobenzo[b]thiophen-4-yl)-4-((1S,7S,8S)-8-fluoro-5-oxa-2-azabicyclo[5.1.0]octan-2-yl)-2-(((2R,7aS)-2-fluorotetrahydro-1H-pyrrolizin-7a(5H)-yl)methoxy-d2)-8-methylquinazoline-6-carbonitrile]	< 50	
[2H]C([2H])(Oc1nc(N2CCOC[C@H]3[C@H](F)[C@H]32)c2cc(C#N)c(-c3ccc(F)c4sc(N)c(C#N)c34)c(C)c2n1)[C@@]12CCCN1C[C@H](F)C2 (atropisomer, axis not shown; (aS)) [Example 441, (S)-7-(2-amino-3-cyano-7-fluorobenzo[b]thiophen-4-yl)-4-((1S,7S,8S)-8-fluoro-5-oxa-2-azabicyclo[5.1.0]octan-2-yl)-2-(((2R,7aS)-2-fluorotetrahydro-1H-pyrrolizin-7a(5H)-yl)methoxy-d2)-8-methylquinazoline-6-carbonitrile]	500 to 10000	
[2H]C([2H])(Oc1nc(N2CCOC[C@H]3[C@H](F)[C@H]32)c2cc(F)c(-c3ccc(F)c4sc(N)c(C#N)c34)c(C)c2n1)[C@@]12CCCN1C[C@H](F)C2 (atropisomer, axis not shown; (aS)) [Example 450, 2-amino-7-fluoro-4-((S)-6-fluoro-4-((1S,7S,8S)-8-fluoro-5-oxa-2-azabicyclo[5.1.0]octan-2-yl)-2-(((2R,7aS)-2-fluorotetrahydro-1H-pyrrolizin-7a(5H)-yl)methoxy-d2)-8-methylquinazolin-7-yl)benzo[b]thiophene-3-carbonitrile]	500 to 10000	
[2H]C([2H])(Oc1nc(N2CCOC[C@H]3[C@H](F)[C@H]32)c2cc(F)c(-c3ccc(F)c4sc(N)c(C#N)c34)c(C)c2n1)[C@@]12CCCN1C[C@H](F)C2 (atropisomer, axis not shown; (aS)) [Example 451, 2-amino-7-fluoro-4-((R)-6-fluoro-4-((1S,7S,8S)-8-fluoro-5-oxa-2-azabicyclo[5.1.0]octan-2-yl)-2-(((2R,7aS)-2-fluorotetrahydro-1H-pyrrolizin-7a(5H)-yl)methoxy-d2)-8-methylquinazolin-7-yl)benzo[b]thiophene-3-carbonitrile]	< 50	
[2H]C([2H])(Oc1nc(N2CCOC[C@H]3[C@H](F)[C@H]32)c2cc(F)c(-c3cc(O)cc4ccc(F)c(C#C)c34)c(F)c2n1)[C@@]12CCCN1C[C@H](F)C2 (atropisomer, axis not shown; (aS)) [Example 453, 4-((R)-6,8-difluoro-4-((1S,7S,8S)-8-fluoro-5-oxa-2-azabicyclo[5.1.0]octan-2-yl)-2-(((2R,7aS)-2-fluorotetrahydro-1H-pyrrolizin-7a(5H)-yl)methoxy-d2)quinazolin-7-yl)-5-ethynyl-6-fluoronaphthalen-2-ol]	< 50	
[2H]C([2H])(Oc1nc(N2CCOC[C@H]3[C@H](F)[C@H]32)c2cc(F)c(-c3cc(O)cc4ccc(F)c(C#C)c34)c(F)c2n1)[C@@]12CCCN1C[C@H](F)C2 (atropisomer, axis not shown; (aS)) [Example 454, 4-((S)-6,8-difluoro-4-((1S,7S,8S)-8-fluoro-5-oxa-2-azabicyclo[5.1.0]octan-2-yl)-2-(((2R,7aS)-2-fluorotetrahydro-1H-pyrrolizin-7a(5H)-yl)methoxy-d2)quinazolin-7-yl)-5-ethynyl-6-fluoronaphthalen-2-ol]	500 to 10000	
[2H]C([2H])(Oc1nc(N2CCOC[C@H]3[C@H](F)[C@H]32)c2cc(C(F)(F)F)c(-c3cccc4sc(N)c(C#N)c34)c(F)c2n1)[C@@]12CCCN1C[C@H](F)C2 (atropisomer, axis not shown; (aS)) [Example 466, 2-amino-4-((S)-8-fluoro-4-((1S,7S,8S)-8-fluoro-5-oxa-2-azabicyclo[5.1.0]octan-2-yl)-2-(((2R,7aS)-2-fluorotetrahydro-1H-pyrrolizin-7a(5H)-yl)methoxy-d2)-6-(trifluoromethyl)quinazolin-7-yl)benzo[b]thiophene-3-carbonitrile]		IC50 (Homo sapiens, NCI-H441, cellular pERK HTRF, NCI-H441 (KRAS G12V) cells): < 50 nM
